What was measured:
[1] = target: T1, EPAC2 (Mus musculus, UniProt Q9EQZ6); test: 8-NBD-cAMP competition / primary screen fluorescence assay; assay type: binding; settings: for IC50: competition with 8-NBD-cAMP in binding to EPAC2; for dose response of EPAC2/8-NBD-cAMP fluorescence signal: dose-dependent response, Figure 2
T1 construct: when titrated with purified full-length EPAC2; made in house
T1 sequence (Q9EQZ6 1-993 isoform Q9EQZ6-3): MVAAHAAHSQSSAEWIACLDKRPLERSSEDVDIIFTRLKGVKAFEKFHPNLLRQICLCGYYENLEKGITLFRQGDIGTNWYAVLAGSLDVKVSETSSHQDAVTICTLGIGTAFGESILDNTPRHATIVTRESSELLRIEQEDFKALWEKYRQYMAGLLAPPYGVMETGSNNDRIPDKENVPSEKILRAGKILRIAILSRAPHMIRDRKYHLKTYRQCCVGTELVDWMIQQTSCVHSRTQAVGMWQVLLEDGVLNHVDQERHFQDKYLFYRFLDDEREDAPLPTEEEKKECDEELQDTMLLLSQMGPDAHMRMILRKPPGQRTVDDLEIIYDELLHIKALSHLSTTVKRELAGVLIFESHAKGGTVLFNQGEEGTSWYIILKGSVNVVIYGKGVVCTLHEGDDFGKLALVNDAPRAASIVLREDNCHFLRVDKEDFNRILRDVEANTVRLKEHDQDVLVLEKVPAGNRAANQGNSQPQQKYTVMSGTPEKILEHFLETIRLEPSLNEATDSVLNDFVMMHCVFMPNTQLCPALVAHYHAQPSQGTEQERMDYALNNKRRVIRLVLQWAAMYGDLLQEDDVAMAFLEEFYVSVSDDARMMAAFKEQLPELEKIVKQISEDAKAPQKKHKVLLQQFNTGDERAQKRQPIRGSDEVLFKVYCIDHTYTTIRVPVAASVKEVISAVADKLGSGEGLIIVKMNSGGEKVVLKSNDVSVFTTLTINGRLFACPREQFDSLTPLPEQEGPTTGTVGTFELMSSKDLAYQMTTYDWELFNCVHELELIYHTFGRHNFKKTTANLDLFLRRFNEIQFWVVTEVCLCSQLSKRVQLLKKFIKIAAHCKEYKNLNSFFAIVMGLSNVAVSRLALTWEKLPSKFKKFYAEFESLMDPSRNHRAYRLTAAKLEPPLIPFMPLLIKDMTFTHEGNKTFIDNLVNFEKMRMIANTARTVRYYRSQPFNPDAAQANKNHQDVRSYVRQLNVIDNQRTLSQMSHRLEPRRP
Procedure: Primary screen of NCI DTP (Developmental Therapeutics Program) diversity set library was performed in black 96-well microplates from Corning Costar (Cambridge, MA, USA). Briefly, 50 nM EPAC2 solution was prepared in 20 mM Tris buffer, pH 7.5, containing 150 mM NaCl, 1 mM EDTA and 1 mM […]. […] Test compounds were added from 10 mM stock solutions in DMSO. […] Fluorescence intensity signal from 8-NBD probe was recorded at room temperature before and after tested compounds were added using SpectaMaxM2 microplate reader (Molecular Devices, Silicon Valley, CA, USA) with excitation/emission wavelengths set at 470/540 nm.

[2] = target: T2, type I PKA holoenzyme (Homo sapiens, UniProt P10644); test: Type I PKA holoenzyme kinase activity (counter screening assay); assay type: biochemical; settings: 25 µM compound, 0.1 mM cAMP
T2 construct: made in house; host or cells: E. coli
T2 sequence (P10644 whole entry): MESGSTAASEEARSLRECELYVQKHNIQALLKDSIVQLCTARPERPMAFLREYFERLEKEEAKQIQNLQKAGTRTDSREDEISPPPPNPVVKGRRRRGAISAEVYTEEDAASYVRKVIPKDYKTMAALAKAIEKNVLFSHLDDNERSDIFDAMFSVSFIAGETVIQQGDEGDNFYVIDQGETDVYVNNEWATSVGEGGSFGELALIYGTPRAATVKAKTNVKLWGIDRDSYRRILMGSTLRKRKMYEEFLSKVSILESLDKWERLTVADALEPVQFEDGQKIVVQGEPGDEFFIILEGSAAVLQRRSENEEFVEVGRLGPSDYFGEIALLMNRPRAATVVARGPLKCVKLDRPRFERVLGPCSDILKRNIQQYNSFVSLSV
Procedure: (§1) Kinase activities of the type I and II PKA holoenzymes were measured spectrophotometrically in a 96-well plate with a coupled enzyme assay as described previously. In this assay, the formation of the ADP is coupled to the oxidation of NADH by the pyruvate kinase/lactate dehydrogenase reactions so the reaction rate can be determined by following the oxidation of NADH, reflected by a decrease in absorbance at 340 nm. […] Reactions were pre-equilibrated at room temperature and initiated by adding the Kemptide substrate (final concentration 0.26 mM). PKA activities measured in the presence of 25 µM H89, a selective PKA inhibitor, were used as positive controls of PKA inhibition.

[3] = target: T1, EPAC2; test: EPAC2 GEF activity, Rap1 nucleotide exchange (secondary confirmation assay); assay type: biochemical; settings: 25 µM compound in the presence of 25 µM cAMP
Procedure: Measurement of in vitro guanine nucleotide exchange factor (GEF) activity of EPAC was adapted from a well known fluorescence-based assay using a fluorescent guanine nucleotide analog, and used as a functional confirmation assay for the compounds identified from primary screen. […] Exchange of Mant-GDP by GDP was measured as a decrease in fluorescence intensity over time using a FluoroMax-3 spectrofluorometer with excitation/emission wavelengths set at 366/450 nm. Typically, decay in the fluorescence intensity was recorded over a time course of 6000 s with data points taken every 60 s.

[4] = target: T3, type II PKA holoenzyme (Homo sapiens, UniProt P31323); test: Type II PKA holoenzyme kinase activity (counter screening assay); assay type: biochemical; settings: 25 µM compound, 0.1 mM cAMP
T3 construct: made in house; host or cells: E. coli
T3 sequence (P31323 whole entry): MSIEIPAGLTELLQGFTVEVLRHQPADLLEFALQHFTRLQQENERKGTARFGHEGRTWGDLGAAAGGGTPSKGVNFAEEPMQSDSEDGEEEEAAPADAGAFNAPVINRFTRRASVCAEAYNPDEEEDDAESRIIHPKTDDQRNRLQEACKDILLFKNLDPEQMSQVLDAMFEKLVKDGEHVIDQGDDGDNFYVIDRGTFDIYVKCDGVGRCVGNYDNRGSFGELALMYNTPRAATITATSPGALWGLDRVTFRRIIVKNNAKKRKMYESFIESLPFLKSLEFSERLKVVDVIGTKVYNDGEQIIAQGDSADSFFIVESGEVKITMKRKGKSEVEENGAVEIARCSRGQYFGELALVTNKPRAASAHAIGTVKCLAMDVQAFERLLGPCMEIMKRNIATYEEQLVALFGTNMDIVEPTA
Procedure: as §1

[5] = system: EPAC; settings: cited from earlier work

SMILES: O=C1C=CC2=C(Oc3c(ccc(O)c3O)/C2=C/C=C(O)O)C1=O [NSC119911]
- IC50 [1]: 3.8 µM
- type I PKA activity blocked [2]: ~50%
- inhibition of cAMP-mediated EPAC2 GEF activity [3]: inhibit EPAC2 GEF activity to basal levels
- type II PKA activity blocked [4]: ~50%

SMILES: O=C1C=Cc2ccccc2C1=NNc1cccc2cc(S(=O)(=O)O)ccc12 [NSC45576]
- IC50 [1]: 1.7 µM
- effect on cAMP-induced type I PKA holoenzyme activation [2]: did not significantly alter
- inhibition of cAMP-mediated EPAC2 GEF activity [3]: inhibit EPAC2 GEF activity to basal levels
- effect on cAMP-induced type II PKA holoenzyme activation [4]: did not significantly alter

SMILES: CO[C@@H]1[C@@H]2OP(=O)(O)OC[C@H]2O[C@H]1n1c(Sc2ccc(Cl)cc2)nc2c(N)ncnc21 [8-CPT-2′-O-Me-cAMP, 8-(4-chloro-phenylthio)-2′-O-methyladenosine-3′,5′-cyclic monophosphate]
- selectivity towards EPAC over PKA [5]: about 100 fold

SMILES: Nc1ncnc2c1nc(Cl)n2[C@@H]1O[C@@H]2COP(=O)(O)O[C@H]2[C@H]1O [8-Cl-cAMP, reference compound]
- dose response of EPAC2/8-NBD-cAMP fluorescence signal [1]: significant dose-dependent inhibitions

SMILES: O=c1[nH]c(=O)c2ncn(C3OC4COP(=O)(O)OC4C3O)c2[nH]1 (stereo not shown) [cXMP, reference compound]
- dose response of EPAC2/8-NBD-cAMP fluorescence signal [1]: minimal effects

SMILES: Nc1ncnc2c1ncn2C1CC2OP(=O)(O)OCC2O1 (stereo not shown) [2′-deoxy-cAMP, reference compound]
- dose response of EPAC2/8-NBD-cAMP fluorescence signal [1]: minimal effects

SMILES: N#Cc1c(NC(=O)C(F)(F)F)sc2c3c(=O)c4ccccc4c(=O)c=3oc3ccccc3c12 [NSC686365]
- IC50 [1]: 7.9 µM
- effect on cAMP-induced type I PKA holoenzyme activation [2]: did not significantly alter
- inhibition of cAMP-mediated EPAC2 GEF activity [3]: inhibit EPAC2 GEF activity to basal levels
- effect on cAMP-induced type II PKA holoenzyme activation [4]: did not significantly alter

Source: article PMC3262007, “A Fluorescence-Based High-Throughput Assay for the Discovery of Exchange Protein Directly Activated by Cyclic AMP (EPAC) Antagonists” (PLoS ONE, 2012)
